Literature values, collected in patent publication US20230405024A1 (priority 2020, published 2023).

Q: For cannabidiol [CBD], which solubility in water is on record?
A: insoluble
